Columns and labels:
[1] = molecular target: Human aminopeptidase P2 (APP2) (Homo sapiens (Human), UniProt O43895); assay: Determination of human APP2 activity (quenched fluorescent substrate); assay type: biochemical; conditions: for IC50: purified human kidney APP2, substrate 1 μM (=Km), pH 7.4, 30° C., read-out: Binding affinity (IC50) APP2; for IC50 ratio ACE/APP2: selectivity, ratio of IC50s for ACE/APP2
Experimental: Human kidney tissue, which was obtained from the Cooperative Human Tissue Network, was the source of purified human APP2 as used herein. APP2 enzyme activity was measured during purification as described in Example 2B below. The membrane-bound APP2 was purified from human kidney tissue using the following steps: 1) kidney tissue was homogenized in 30 volumes of buffer containing Triton X-100 detergent and centrifuged; 2) the pellet was washed and suspended in buffer containing octyl-β-D-glucopyranoside detergent, and then centrifuged; 3) the supernatant was treated with 10 units of phosphatidylinositol-specific phospholipase C (Invitrogen, Eugene, Ga.) to remove the hydrophobic part of the glycosyl-phosphatidylinositol lipid membrane anchor from APP2, and then dialyzed; 4) the dialysate was passed through an octyl-Sepharose chromatography column; 5) the eluent was centrifuged and then concentrated by ultrafiltration in Amicon Ultra-15 Ultracel-10 k filters (Millipore Corp, Billerica, Mass.); 6) the retentate was dialyzed and applied to a HiTrap Q-Sepharose XL ion exchange chromatography column. Human APP2 enzyme activity was eluted with a linear KCl salt gradient.
Human aminopeptidase P2 (APP2) enzyme activity was determined using the internally quenched fluorescent substrate: H-Lys(2-aminobenzoyl)-Pro-Pro-p-nitroanilide (Bachem, Torrance, Calif.) at 1 μM (=Km) for inhibitor studies and 5 μM for enzyme purification assays. The assay buffer was 0.1 M HEPES, pH 7.4, and the assay temperature was 30° C. Cleavage of the substrate by the enzyme produces an increase in fluorescence due to the release of H-Lys(2-aminobenzoyl). Enzyme rates were determined in an F. fluorescence plate reader (Molecular Devices, Sunnyvale, Calif.) using an excitation wavelength of 320 nm and an emission wavelength of 405 nm. The binding affinity of an inhibitor was estimated and expressed as IC50 values (the concentration that inhibits activity by 50%).

[2] = molecular target: Human recombinant angiotensin-converting enzyme (hrACE) (Homo sapiens (Human), UniProt P12821); assay: Determination of human ACE activity (quenched fluorescent substrate ES005); assay type: biochemical; conditions: for IC50: hrACE, substrate below Km, pH 7.4, 30° C., read-out: Binding affinity (IC50) ACE
Human recombinant angiotensin-converting enzyme (hrACE), sequence (P12821 30-1306): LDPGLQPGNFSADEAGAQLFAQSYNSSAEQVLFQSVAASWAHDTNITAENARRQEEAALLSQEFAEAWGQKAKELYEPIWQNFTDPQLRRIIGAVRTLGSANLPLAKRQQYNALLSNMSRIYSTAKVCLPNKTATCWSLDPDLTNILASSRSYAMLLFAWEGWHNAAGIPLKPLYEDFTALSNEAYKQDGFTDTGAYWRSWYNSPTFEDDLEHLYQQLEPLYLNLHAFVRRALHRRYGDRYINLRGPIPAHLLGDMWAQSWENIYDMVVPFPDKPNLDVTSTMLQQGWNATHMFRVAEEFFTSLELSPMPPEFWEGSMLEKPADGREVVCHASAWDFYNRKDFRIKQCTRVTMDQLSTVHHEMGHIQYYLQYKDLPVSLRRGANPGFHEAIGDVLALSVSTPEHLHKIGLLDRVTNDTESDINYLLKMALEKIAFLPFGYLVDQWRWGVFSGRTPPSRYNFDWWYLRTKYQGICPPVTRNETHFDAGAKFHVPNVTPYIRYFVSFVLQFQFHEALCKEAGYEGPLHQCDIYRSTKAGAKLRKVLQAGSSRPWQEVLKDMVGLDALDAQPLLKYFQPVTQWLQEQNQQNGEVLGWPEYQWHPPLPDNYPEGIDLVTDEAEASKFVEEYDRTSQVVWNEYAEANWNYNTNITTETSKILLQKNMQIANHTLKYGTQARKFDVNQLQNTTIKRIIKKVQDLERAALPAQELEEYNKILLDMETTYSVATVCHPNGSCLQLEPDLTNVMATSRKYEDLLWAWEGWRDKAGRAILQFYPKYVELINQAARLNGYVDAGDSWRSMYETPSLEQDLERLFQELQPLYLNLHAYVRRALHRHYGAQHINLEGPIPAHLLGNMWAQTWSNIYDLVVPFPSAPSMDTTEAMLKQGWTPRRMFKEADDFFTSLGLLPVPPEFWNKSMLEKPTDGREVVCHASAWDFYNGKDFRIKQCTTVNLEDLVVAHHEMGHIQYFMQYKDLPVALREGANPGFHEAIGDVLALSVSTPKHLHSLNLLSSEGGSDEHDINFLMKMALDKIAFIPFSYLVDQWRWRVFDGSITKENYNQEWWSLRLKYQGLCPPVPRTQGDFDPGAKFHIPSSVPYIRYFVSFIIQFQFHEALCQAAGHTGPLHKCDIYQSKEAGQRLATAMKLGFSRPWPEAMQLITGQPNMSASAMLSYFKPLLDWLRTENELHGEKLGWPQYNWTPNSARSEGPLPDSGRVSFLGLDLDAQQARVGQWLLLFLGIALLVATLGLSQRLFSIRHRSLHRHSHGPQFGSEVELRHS
Experimental: Human recombinant angiotensin-converting enzyme (hrACE) was obtained from R&D Systems (Minneapolis, Minn.). Its enzyme activity was determined using the internally quenched fluorescent substrate ES005: (7-methoxycoumarin-4-yl)acetyl-Arg-Pro-Pro-Gly-Phe-Ser-Ala-Phe-(2,4-dinitrophenyl)-Lys (R&D Systems, Minneapolis, Minn.). The assay buffer was 0.1 M HEPES, pH 7.4, and the temperature was 30° C. The substrate concentration was below Km (≦40 μM). Enzyme rates were determined in an Fmax fluorescence plate reader (Molecular Devices, Sunnyvale, Calif.) using an excitation wavelength of 320 nm and an emission wavelength of 405 nm. The binding affinity of an inhibitor was estimated and expressed as IC50 values (the concentration that inhibits activity by 50%).

isolated perfused heart = conditions: ischemia/reperfusion (Ersahin et al. 1999); cited from earlier work
Male CD-1(ICR) mice = assay: Bilateral renal ischemia/reperfusion in mice; assay type: in vivo, mouse; conditions: for reduction of blood urea nitrogen (BUN) compared to saline: i.v. 5 min before reperfusion after 25 min ischemia, BUN after 2 days of reperfusion, apstatin 1.8 mg/kg, ST-115 10 μg/kg; for mice that died before the prespecified 2-day BUN measurement point: saline control 29% died early
Experimental: Previous studies have shown that the prototype APP2 inhibitor apstatin can greatly reduce ischemia/reperfusion damage in the heart. […] In this study, blood flow to both kidneys of the mouse was blocked for 25 min., producing ischemia. Blood flow was then restored (reperfusion). In order to determine the effects of inhibiting APP2 in this model of kidney damage, apstatin, ST-115, or saline (control) were administered intravenously 5 min. before reperfusion. After two days of reperfusion, blood urea nitrogen (BUN, a marker of kidney dysfunction) was measured. In FIG. 1, data are presented as the mean±standard error of the mean. Each drug was separately compared to the control by the unpaired t-test with Welch's correction. ** Apstatin vs. Saline, p<0.01; *** ST-115 vs. Saline, p<0.001.
Male CD-1(ICR) mice (36-47 g) from Harlan Laboratories (Indianapolis, Ind.) were used. Each mouse was anesthetized by the subcutaneous injection of 50 mg/kg sodium pentobarbital (Akorn Inc, Lake Forest, Ill.) and placed on a 37° C. warmer. For surgery, the abdomen was shaved and the mouse was moved to a warming plate with feedback temperature control (TCAT-2DF, Harvard Apparatus Holliston, Mass.). The body temperature of the mouse was maintained at 36.9±0.1° C. throughout the procedure. The skin of the abdomen was washed with alcohol, and a midline incision was made to expose the kidneys. After removing adipose tissue from the renal pedicles, a microaneurysm clamp was placed on each pedicle to block blood flow to/from both kidneys for 25 min. (referred to as the ischemia phase). At the 20 min. point, 0.15 ml of either saline or saline containing drug (apstatin or ST-115) was administered intravenously through the femoral vein. The doses were 1.8 mg/kg for apstatin and 10 μg/kg for ST-115. At 5 minutes after drug injection, the clamps were removed from the pedicles to restore blood flow to/from the kidneys (the reperfusion phase). After confirming reperfusion, a subcutaneous injection of saline was administered in the upper thigh for rehydration, and the incision was sutured closed. Regulated temperature control was maintained for at least the first 0.5 hours of reperfusion. The mouse was then placed on a 37° C. warmer to recover from the anesthetic and then moved to the home cage. After 2 days of reperfusion, the mouse was sacrificed by exsanguination. The blood was allowed to clot and then centrifuged to obtain serum. The serum was assayed for its concentration of urea (Blood Urea Nitrogen—BUN), a marker of kidney damage, using a kit from Stanbio (Boerne, Tex.). […] The BUN data points (20) were analyzed by comparing the values for each drug with those of the saline control using the unpaired t-test with Welch's correction (Graphpad Prism statistical package, La Jolla, Calif.).

Human aminopeptidase P2 (APP2), sequence (O43895 22-674): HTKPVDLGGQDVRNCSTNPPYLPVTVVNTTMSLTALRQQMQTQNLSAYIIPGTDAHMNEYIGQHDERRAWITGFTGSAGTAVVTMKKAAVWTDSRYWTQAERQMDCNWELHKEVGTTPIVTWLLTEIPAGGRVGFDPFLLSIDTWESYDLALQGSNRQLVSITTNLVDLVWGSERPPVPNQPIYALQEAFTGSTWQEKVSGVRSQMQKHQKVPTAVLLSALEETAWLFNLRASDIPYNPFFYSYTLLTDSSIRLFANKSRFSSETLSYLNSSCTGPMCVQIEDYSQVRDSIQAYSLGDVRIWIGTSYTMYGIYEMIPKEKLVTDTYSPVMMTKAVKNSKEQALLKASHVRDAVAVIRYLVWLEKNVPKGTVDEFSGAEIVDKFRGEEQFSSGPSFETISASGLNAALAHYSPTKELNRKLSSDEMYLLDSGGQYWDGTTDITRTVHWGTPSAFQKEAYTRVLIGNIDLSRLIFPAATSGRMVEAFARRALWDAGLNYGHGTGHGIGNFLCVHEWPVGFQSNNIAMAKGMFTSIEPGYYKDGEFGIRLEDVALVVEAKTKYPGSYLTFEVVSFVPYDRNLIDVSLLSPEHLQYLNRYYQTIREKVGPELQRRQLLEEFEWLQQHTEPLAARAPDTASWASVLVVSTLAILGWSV

IC50 [1] | IC50 ratio ACE/APP2 [1] | IC50 [2] | SMILES | reduction of cardiac damage (isolated perfused heart) | reduction of blood urea nitrogen (BUN) compared to saline (Male CD-1(ICR) mice) | mice that died before the prespecified 2-day BUN measurement point (Male CD-1(ICR) mice) | IC50 for human APP2 [1] | IC50 for human ACE [2]
9.7 nM | 1,200 | 12000 nM | CC(C)C[C@H](S)C(=O)N1CCC[C@H]1C(=O)N1CCC[C@H]1C(=O)N1CCC[C@@H]1C(=O)O [Formula VI] |  |  |  |  | 
3.9 nM | 160 | 640 nM | CC(C)C[C@H](S)C(=O)N1CCC[C@H]1C(=O)N1CCC[C@H]1C(=O)N(C)[C@@H](C)C(=O)O [Formula VII] |  |  |  |  | 
 |  |  | C[C@H](NC(=O)[C@@H]1CCCN1C(=O)[C@@H]1CCCN1C(=O)[C@@H](O)[C@H](N)Cc1ccccc1)C(N)=O [apstatin] | 74% | 49% | no apstatin or ST-115 treated mice died early |  | 
26 nM | 1,900 | 49000 nM | CC(C)C[C@H](S)C(=O)N1CCC[C@H]1C(=O)N1CCC[C@H]1C(=O)N1CC[C@H](C(=O)O)C1 [Formula V] |  |  |  |  | 

SMILES | IC50 [1] | IC50 ratio ACE/APP2 [1] | IC50 [2] | reduction of cardiac damage (isolated perfused heart) | reduction of blood urea nitrogen (BUN) compared to saline (Male CD-1(ICR) mice) | mice that died before the prespecified 2-day BUN measurement point (Male CD-1(ICR) mice) | IC50 for human APP2 [1] | IC50 for human ACE [2]
CC(C)C[C@H](S)C(=O)N1C[C@@H](F)C[C@H]1C(=O)N1CCC[C@H]1C(=O)N1CC[C@@H](C(=O)O)C1 [Formula III, [(S)-2-mercapto-4-methylpentanoyl]-4(S)-fluoro-Pro-Pro-[(3R)-β-Pro]-OH] | 3.7 nM | 18,000 | 68000 nM |  | 56% | no apstatin or ST-115 treated mice died early | 3.7 nM/L | 68,000 nM/L
